The test system of assay [1] is T.b. brucei bloodstream form lister 427. In words: T.b. brucei Alamar Blue viability estimation assay (384-well HTS, retest and rescreen). The format is cell-based, Trypanosoma brucei brucei. To be noted: for Estimated Selectivity Index: retest campaign; for Primary Screening Activity 10.2µM (%): single point, inhibition relative to controls. The protocol: T.b. brucei lister 427 cells were maintained in log phase growth in 25 cm^2 tissue culture flasks (Corning, NY, USA) by sub-culturing at either 24 or 48 hour intervals. Cells were grown in HMI-9 medium, supplemented with 10% fetal calf serum (FCS) and 100 IU/ml penicillin/streptomycin (Invitrogen, Carlsbad, California, USA) with incubation at 5% CO2 at 37°C in humidified conditions. HEK293 cells were maintained in high glucose DMEM with L-glutamine, supplemented with 1× non-essential amino acids (NEAA; Invitrogen, USA) and 1 mM sodium pyruvate. Growth conditions were in 5% CO2 at 37°C, under humidified conditions.
All reagent and cell additions were made with a Multidrop liquid handler (Thermo Scientific, Newington, NH, USA) under sterile conditions. Fifty-five microliters of 2000 cells/mL of T.b. brucei in HMI-9 medium were added to a black, clear-bottomed 384-well lidded plate (BD Biosciences, Franklin Lanes, NJ, USA). Cells were incubated for 24 hours at 37°C in an atmosphere of 5% CO2 before addition of 5 µl of compounds/DMSO for control wells. Compounds suspended in 100% DMSO or 100% DMSO as controls were pre-diluted 1∶21 in high glucose DMEM without FCS by using a Minitrack robotic liquid handler (PerkinElmer, Waltham, MA, USA). Five microliters of diluted sample was added to the plate to give a final DMSO concentration of 0.417% in the assay. Cells were incubated for an additional 48 hours at 37°C. Ten microliters of 70% Alamar Blue (Biosource, Bethesda, MD, USA) was added to each well (diluted in HMI-9 medium supplemented with 10% FCS) to a final concentration of 10% in the assay. The plate was incubated for two hours under the same conditions, then incubated for 22 hours in the dark at room temperature. Wells were read at 535 nm (excitation) and 590 nm (emission) wavelengths on a Victor II Wallac plate reader (PerkinElmer, USA). Specific dilutions are explained further in the primary and retest assay methodology. Reference drugs used in the assay were pentamidine (Sigma-Aldrich, St Louis, MO, USA), diminazene aceturate (Sigma-Aldrich, USA) and puromycin (Calbiochem, San Deigo, CA, USA). Pentamidine is used to treat patients with HAT and diminazene is a veterinary drug used against T.b. brucei to combat infections in cattle.
Primary screening of the library, consisting of 87,296 compounds in two hundred and forty eight 384-well plates, was undertaken in single point against T.b. brucei. Stock solutions consisted of test compound at a concentration of 5 mM in 100% DMSO. One µl of each compound stock solution was diluted by the addition of 40 µl of dilution medium (high glucose DMEM without FCS) by a multidrop liquid handler (Thermo Scientific, USA). A 5 µl sample of this diluted solution was then added to the trypanosome assay plate. The final concentration of test compound in the assay was […] and that of DMSO was 0.42% v/v. Compounds were screened over a total of 11 days, at an average of 80 plates per day, taking into consideration that the assay incubation was 3 days total. Test compounds were added to plates in batches of 20 at two hour intervals, to maintain the timing of additions and reads.
Compound activity was calculated as the percentage inhibition in relation to positive and negative controls. […] These in-plate negative controls were used in an effort to normalise compound activity in relation to any plate to plate variation in the assay signal. A whole 384-well control plate was included in each day's screening, one per 20 compound plates containing half a plate of 2 µM pentamidine for the positive assay control, and half a plate of 0.42% v/v DMSO as a negative control. The positive assay control was used to calculate compound activity for batches of 20 compound plates. As well providing the positive control data, these whole plate controls were used for the calculation of the Z' to measure the reproducibility of the assay.

The test system of assay [2] is L. donovani strain MHOM/ET/67/L82 axenic amastigotes. In words: L. donovani axenic amastigote fluorescence assay; SI versus L6 cells. Format: cell-based, Leishmania donovani. To be noted: for IC50: axenic amastigotes, 70 h, read-out: Compound activity L.D (IC50); for Selectivity Index L.D: relative to L6 cells. The method, then: L6 rat skeletal myoblasts, [29] were purchased from the American Type Culture Collection (ATCC, Rockville, MD, USA; ATCC number CRL 1458). This cell line was used for cytotoxicity testing to calculate an SI against T.b. rhodesiense and screened alongside the T.b. rhodesiense, P. falciparum, T. cruzi and L. donovani assays. L6 were also the host cells for the T. cruzi assay. Assays were performed in 96-well microtiter plates, each well containing 100 µl of RPMI 1640 medium supplemented with 1% L-glutamine (200 mM), 10% FCS, and 4000 L6 cells. Serial drug dilutions of eleven 3-fold dilution steps covering a range from 100 to 0.002 µg/ml were prepared. After 70 hours of incubation the plates were inspected under an inverted microscope to assure growth of the controls and sterile conditions. Ten µl of resazurin solution (resazurin, 12.5 mg in 100 ml double-distilled water) was then added to each well and the plates incubated for another 2 hours. Then the plates were read with a Spectramax Gemini XS microplate fluorometer (Molecular Devices Cooperation, Sunnyvale, CA, USA) using an excitation wavelength of 536 nm and an emission wavelength of 588 nm. Data was analysed using the microplate reader software Softmax Pro (Molecular Devices, USA). Podophyllotoxin was used as a positive control in the assay.
Amastigotes of L. donovani strain MHOM/ET/67/L82 were grown in axenic culture at 37°C in SM medium at pH 5.4 supplemented with 10% heat-inactivated FCS under an atmosphere of 5% CO2 in air. One hundred µl of culture medium containing 10^5 amastigotes from axenic culture with or without a serial drug dilution were seeded in 96-well microtitre plates. Serial drug dilutions of eleven 3-fold dilution steps covering a range from 100 to 0.002 µg/ml were prepared. After 70 hours of incubation the plates were inspected under an inverted microscope to assure growth of the controls and sterile conditions. Ten µl of resazurin solution (12.5 mg resazurin dissolved in 100 ml distilled water) were then added to each well and the plates incubated for another 2 hours. The plates were then read with a Spectramax Gemini XS microplate fluorometer (Molecular Devices, USA) using an excitation wavelength of 536 nm and an emission wavelength of 588 nm. Data was analysed using the software Softmax Pro (Molecular Devices, USA). Decrease of fluorescence ( = inhibition) was expressed as percentage of the fluorescence of control cultures and plotted against the drug concentrations. From the sigmoidal inhibition curves the IC50 values were calculated. Miltefosine served as a known drug control in this assay.

Setting [3] is: HEK293 IC50 / T.b. brucei IC50, > if less than 50% activity at 75.8 µM in HEK293.
[4] abbreviates: Trypanosoma brucei, Alamar Blue-based HTS assay format, run with time to kill study, read-out: Activity (IC50 value) AB assay.
The mark [5] stands for this setting: Trypanosoma brucei, re-synthesised/re-purchased compounds, three experiments, two replicates each, read-out: Compound activity T.B (IC50).
Where [6] appears, read: Trypanosoma brucei, retest campaign from stock solutions, duplicate, read-out: Retest IC50 T.b.brucei.
Where [7] appears, read: re-synthesised/re-purchased compounds, three experiments, two replicates each, read-out: Compound activity T.B (IC50).
Where [8] appears, read: Trypanosoma brucei, read-out: Activity (IC50 value) AB assay, Alamar Blue-based HTS assay format, run with time to kill study.
The mark [9] stands for this setting: Trypanosoma brucei, read-out: Compound activity T.B (IC50), re-synthesised/re-purchased compounds, three experiments, two replicates each.
[10] abbreviates: Trypanosoma brucei, 13 control plates, triplicate dose-response, read-out: IC50 of reference compounds, primary screening campaign.
[11] abbreviates: Trypanosoma brucei, reference compounds, read-out: IC50 against T.b. brucei, retest screening campaign.

Where “and” joins values, the source holds several entries; their conditions need not be identical. Equal values may be shown once. Read-outs that look alike come from different tables or passages of the source.

Regarding `CC(C)(C)C(=O)NCCc1csc(-c2cccc(F)c2)n1` [Compound 1], in assay [1] (setting [3]), the “Selectivity Index T.B” value is greater than 96.0. Also, the IC50 is 1100 ± 65.1 nM in assay [1] (setting [4]); 790 nM in assay [1] (setting [5]); 441 nM in assay [1] (setting [6]); 785 ± 82.9 nM in assay [1] (setting [7]); 46100 ± 22400 nM in assay [2] (Leishmania donovani, L6, 70 h). Moreover, the “Estimated Selectivity Index” value in assay [1] (HEK293 IC50 / T.b. brucei IC50) is listed as 94.6. The “Primary Screening Activity 10.2µM (%)” value in assay [1] was 100%. In addition, the “Selectivity Index L.D” value in assay [2] worked out at 1.35.

For the molecule `O=C(NCCc1n[nH]c(-c2ccc(F)cc2)n1)c1cccc(F)c1` [Compound 2], the IC50 in assay [1] (setting [5]) was 4000 ± 55.5 nM; in assay [1] (setting [8]), 4710 ± 272 nM; in assay [1] (setting [6]), 1930 nM; in assay [2] (Leishmania donovani, L6, 70 h), 47300 ± 324 nM. Further, in assay [1] (HEK293 IC50 / T.b. brucei IC50), the “Estimated Selectivity Index” value is on record as 21.6. Moreover, in assay [1], the “Primary Screening Activity 10.2µM (%)” value is recorded as 99.5%. Besides, the “Selectivity Index L.D” value in assay [2] was 2.53.

Regarding `CCOc1ccc(OCc2ccc(C(=O)N3CCCC(C)C3)cc2)cc1` (stereo not drawn) [Compound 3], the “Selectivity Index T.B” value in assay [1] (setting [3]) is reported as greater than 67.1. Moreover, the IC50 in assay [1] (setting [5]) is 1100 nM; in assay [1] (setting [6]), 2560 nM; in assay [1] (setting [7]), 1130 ± 347 nM; in assay [2] (Leishmania donovani, L6, 70 h) it was 16100 ± 1700 nM. Besides, the “Estimated Selectivity Index” value in assay [1] (HEK293 IC50 / T.b. brucei IC50) is given as 16.3. Moreover, the “Primary Screening Activity 10.2µM (%)” value in assay [1] is reported as 99%. Besides, the “Selectivity Index L.D” value in assay [2] was determined as 3.09.

On to `Cc1cc(O)nc(-n2nc(C)cc2NC(=O)C2CCCC2)n1` [Compound 4], for which the “Selectivity Index T.B” value in assay [1] (setting [3]) was 25 and 24.6. Further, the IC50 was 3100 nM in assay [1] (setting [9]); 3080 ± 290 nM in assay [1] (setting [7]); 488 ± 154 nM in assay [2] (Leishmania donovani, L6, 70 h). Also, the “Selectivity Index L.D” value in assay [2] is 1.84.

In the case of `CCS(=O)(=O)N1CCCc2ccc(NS(=O)(=O)c3ccccc3F)cc21` [Compound 5], in assay [1] (setting [3]), the “Selectivity Index T.B” value was greater than 35.9. In addition, the IC50 is 2100 nM in assay [1] (setting [9]); 2110 ± 130 nM in assay [1] (setting [7]); 6600 ± 1560 nM in assay [2] (Leishmania donovani, L6, 70 h). Besides, the “Selectivity Index L.D” value in assay [2] is 3.29.

In the case of `CCC(C)NC(=O)c1nc(-c2ccccc2)cnc1N` (stereo not drawn) [Compound 6], the “Selectivity Index T.B” value in assay [1] (setting [3]) was greater than 65.3. The IC50 in assay [1] (setting [5]) was 1200 nM; in assay [1] (setting [8]), 160 ± 40.3 nM; in assay [1] (setting [7]), 1160 ± 304 nM; in assay [2] (Leishmania donovani, L6, 70 h), 34000 ± 5600 nM. For the same molecule, the “Selectivity Index L.D” value in assay [2] is recorded as 0.525.

`O=C(Nc1ccc(Cl)c(-c2nc3ncccc3o2)c1)c1ccco1` [Compound 7]: the IC50 is 198 ± 1.28 nM in assay [1] (setting [4]); 220 nM in assay [1] (setting [9]); 169 nM in assay [1] (Trypanosoma brucei, read-out: Retest IC50 T.b.brucei, retest campaign from stock solutions, duplicate); 218 ± 7.14 nM in assay [1] (setting [7]); 1800 nM in assay [2] (Leishmania donovani, L6, 70 h); 1820 ± 277 nM in assay [2]. The “Primary Screening Activity 10.2µM (%)” value in assay [1] was 100%.

Consider `CCc1ccccc1N=C(NCCN1CCOCC1)NC(=O)c1ccccc1` [Compound 8], for which the “Selectivity Index T.B” value in assay [1] (setting [3]) was greater than 29.0. Besides, the IC50 in assay [1] (setting [5]) is 2600 nM; in assay [1] (setting [7]), 2610 ± 320 nM; in assay [2] (Leishmania donovani, L6, 70 h) it was greater than 263000 nM.

On to `N=C(N)c1ccc(OCCCCCOc2ccc(C(=N)N)cc2)cc1` [Pentamidine, pentamidine, reference compound], for which, in assay [1], the “Selectivity Index T.B” value is on record as greater than 283. In addition, the IC50 is 14.7 ± 4.7 nM in assay [1] (setting [10]); 5.81 ± 0.707 nM in assay [1] (setting [4]); 3.52 ± 0.36 nM in assay [1] (Trypanosoma brucei, during rescreening of resynthesized compounds, read-out: Reference Compound Activity T.B (IC50)); 7.8 ± 3.6 nM in assay [1] (setting [11]).

As for `COc1ccc(C[C@H](N)C(=O)N[C@H]2[C@@H](O)[C@H](n3cnc4c(N(C)C)ncnc43)O[C@@H]2CO)cc1` [Puromycin, puromycin, reference compound], the “Selectivity Index T.B” value in assay [1] was 8.90. Also, the IC50 in assay [1] (13 control plates, triplicate dose-response, read-out: IC50 of reference compounds, primary screening campaign) was 61.9 ± 6.8 nM; in assay [1] (setting [10]) it was 61.9 ± 6.8 nM; in assay [1] (setting [4]), 64.1 ± 0.24 nM; in assay [1] (Trypanosoma brucei, read-out: Reference Compound Activity T.B (IC50), during rescreening of resynthesized compounds) it was 58.4 ± 0.769 nM; in assay [1] (setting [11]), 138 ± 15.7 nM. Further, the “Estimated Selectivity Index” value in assay [1] (HEK293 IC50 / T.b. brucei IC50) is recorded as “less than 10”.
